The conditions of data set [1]: cited from earlier work; for effectiveness when taken orally: oral.
The nature of data set [2]: Example 2: blood testosterone level during testosterone therapy. To be noted: for testosterone level: dog Blackjack. As to the method: (§1) A 28.7 pound, 12 year and two month-old neutered male Cocker Spaniel named Blackjack was evaluated because of his owner's concerns about declines in his level of mobility and arthritis.
(§2) During month one of the protocol, Blackjack was screened for treatment by conducting a thorough physical exam, complete blood chemistry, urinalysis, and testosterone level. […] An initial injection of testosterone IM was administered and Blackjack began treatment with Previcoxx 57 mg once per day. A follow-up was conducted by phone one day after the initial injection and again at two weeks post injection.
(§3) Previcoxx was discontinued and Metacam was prescribed. During a follow-up appointment Blackjack received an injection of testosterone IM. […] It was decided to increase the dosage of testosterone.
At this time a regular annual exam was conducted.

Data set [3] relates to neutered male Cocker Spaniel with declines in mobility and arthritis. Put plainly: Example 2: clinical outcome and side effects in a neutered male Cocker Spaniel. The protocol:
as §1, §2, §3
Radiographs were taken to rule out degenerative joint disease and neoplasia. During month three, the patient received another injection of testosterone IM. […] Blackjack was then operated on to treat the fracture.
Monthly injections of testosterone continued. The dosage of testosterone had to be lowered after surgery due to concerns about Blackjack being too active after surgery to repair his fracture and was raised again after healing was complete. During month nine, Blackjack underwent further surgery to remove multiple skin growths.
During month ten Blackjack received an injection of testosterone, returning him to the dosage he received prior to his injury and subsequent surgery. […] During month twelve Blackjack continued receiving testosterone injections, and during month thirteen additional skin growths had to be removed.

For data set [4] the following is noted: free, non-esterified form; cited from earlier work.
Data set [5] deals with dogs compromised by osteoarthritis, intervertebral disc disease, hip dysplasia, weakness due to old age, muscle atrophy and joint pain. Nature of the data set: Example 1: testosterone replacement therapy study, medical record review. Type of data set: in vivo, dog. An excerpt:
In order to treat dogs, horses, or other animals in need of testosterone replacement therapy, the following protocol should be followed: • (1) Obtain information about potential patient via a clinical intake process and questionnaire such as the example shown in the drawing figure; • (2) Conduct a general physical examination on potential patient; • (3) Conduct laboratory tests on potential patient's blood and/or urine, including measuring initial testosterone levels in the patient's blood. This can be total testosterone or free testosterone. […]
A study was undertaken to determine if dogs compromised by osteoarthritis (also known as degenerative joint disease), intervertebral disc disease, hip dysplasia, weakness due to old age, muscle atrophy and joint pain experienced improvements following testosterone replacement therapy. […] Data from the medical records were analyzed to determine the efficacy of the treatment protocol. Data recorded from medical records included breed, date of birth, age, sex, neutered vs. intact, baseline testosterone level, date of testosterone injections and improvement status (improved vs. no noticeable improvement). […]
Following informed assent by each dog owner, each dog underwent an initial clinical exam including a detailed health history, list of medications, a CBC, urinalysis and baseline testosterone level were conducted. […] Changes in mobility, pain level/medications needed, energy and muscle tone were assessed and testosterone dosage was adjusted if needed prior to each injection. Follow-up testosterone levels were measured one week after the initial injection and on an as needed basis throughout the course of treatment. […]

The conditions of data set [6]: injectable ester; cited from earlier work.

Regarding `CCCCCCCCCCC(=O)O[C@H]1CC[C@H]2[C@@H]3CCC4=CC(=O)CC[C@]4(C)[C@H]3CC[C@]12C` [testosterone undecanoate], in data set [1], the “effectiveness when taken orally” value is “effective when taken orally”. Besides, the “time to elimination from the body” value in data set [1] (orally administered) was 3 to 4 h.

For the compound `C[C@]12CC[C@H]3[C@@H](CCC4=CC(=O)CC[C@@]43C)[C@@H]1CC[C@@H]2O` [testosterone], the testosterone level amounted to 604.80 pg/mL in data set [2] (second month, one week after second IM injection, baseline <40 pg/ml) and 1224.50 pg/mL in data set [2] (third measurement (month three/four) after increased IM dosage). Also, in data set [2] (male, Cocker Spaniel, dog, blood, intramuscular), the concentration at 4 month worked out at 1.22 ng/mL. For the same compound, the “healing of distal humeral lateral condylar fracture while being treated” value in data set [3] (after surgery) is given as “completely healed from this fracture within two months of surgery”. In addition, the side effects entry in data set [3] (follow-up one day and two weeks after initial IM injection) is “No side effects were reported”; in data set [5] (evaluated at monthly follow-ups, all dogs), “no side effects were observed”. Moreover, the “behaviour leading to dosage decrease” value in data set [3] (month eleven) was “mounting other dogs”. The owner-reported improvements entry in data set [3] (owner interview in week 57 of the protocol) is “improvements in Blackjack's ability to jump on furniture, ascend and descend stairs, and rise from sitting and lying positions”. The “adverse side effects from the treatment” value in data set [3] (whole course of treatment) was “no adverse side effects”. For the same compound, the “solubility in oil and water” value in data set [4] is “poor solubility in both oil and water”. Also, the “subjects that made improvements after the study protocol” value in data set [5] (25 dogs analysed, n=23 improved, monthly testosterone injections, improvement = more mobility and/or energy, less pain medication, less muscle atrophy) is listed as “ninety-two”. Further, the “dogs whose injection dosages had to be lowered due to becoming too active” value in data set [5] (two of 25 dogs) is given as 8%. Further, the “effectiveness when taken orally” value in data set [1] was “not effective”.

For the compound `C[C@]12CC[C@H]3[C@@H](CCC4=CC(=O)CC[C@@]43C)[C@@H]1CC[C@@H]2OC(=O)CCC1CCCC1` [Testosterone cypionate], the release time in data set [6] is 8 to 10 days.

On to Testosterone propionate, for which, in data set [6], the release time was 3 to 4 days.

Take `CCCCCCC(=O)O[C@H]1CC[C@H]2[C@@H]3CCC4=CC(=O)CC[C@]4(C)[C@H]3CC[C@]12C` [Testosterone enanthate]: the release time in data set [6] was 8 to 10 days.

For `C[C@]12CC[C@H]3[C@@H](CCC4=CC(=O)CC[C@@]43C)[C@@H]1CC[C@@H]2OC(=O)CCc1ccccc1` [Testosterone phenylpropionate], the release time in data set [6] is recorded as 1-3 weeks.
